Laboratory results taken from a melting point compilation (Tetko et al.).

melting point [°C] | Structure (SMILES)
158 to 160 | CCOc1ccc(Oc2ccccc2N)cc1
154 to 156 | O=C(O)c1ccc(Oc2cccc(Br)c2)nc1
63 to 65 | Nc1ccc(OCCO)nc1
172 to 174 | Cc1ccc(Nc2nnc(S)s2)c(C)c1
209 to 211 | N=C(N)c1ccc(N2CCCC2)cn1
173 to 175 | O=C(O)C1CC(=O)N(c2ccc(Br)cc2)C1 (centres undefined)
54 to 58 | O=C(O)CCCc1ccc(Br)s1
211 to 213 | Nc1ncc(C=NO)s1
45 to 47 | CN1CCN(CCNCc2ccc(Br)cc2F)CC1
150 to 152 | CC1(c2ccccc2)CC(=O)NC(=O)C1
275 to 277 | CC(C)n1ncc2c(C(=O)O)cc(-c3ccco3)nc21
198 to 200 | O=C(O)c1nc(-c2ccccc2)oc1C1CC1
209 to 211 | O=C(O)c1cc(-c2ccco2)nc2ccccc12
162 to 164 | Cn1ccnc(N)c1=O
< 17 | CCOC(=O)Cc1nnc(S)n1Cc1ccco1
44 to 45 | Nc1ccccc1C(=O)Nc1ccc(Cl)cc1
104 to 106 | CN(C)C(=O)c1cc(N)ccc1F
75 to 77 | COC(=O)NCCC(=O)O
146 to 148 | O=C(O)c1cc(Cl)cc([N+](=O)[O-])c1
252 to 254 | O=C1NC(=O)C2(CCc3cc(Cl)ccc32)N1 (centres undefined)
265 to 267 | O=C(O)c1c[nH]c(=O)cn1
163 to 165 | NC(=O)c1ccc(N)cc1Cl
34 to 36 | O=S(=O)(Cl)CCOc1ccc(F)cc1

melting point [°C] | Structure (SMILES)
236 to 238 | CC(C)Cn1c(S)nc2scc(-c3cccs3)c2c1=O
169 to 171 | Cc1ccc(-c2nnc(CCC(=O)O)o2)cc1
98 to 100 | O=c1[nH]c(CCl)nc2c1oc1ccccc12
216 to 220 | Cn1[nH]c(=O)nc1S
154 to 156 | O=[N+]([O-])c1cccc(-c2nn[nH]n2)c1
63 to 65 | CN1CCN(CCOc2ccc(N)cc2)CC1
120 to 122 | Nc1ccc(-c2ccc[nH]2)cc1
122 to 124 | O=C(CCCl)N(c1ccccc1)C1C=CS(=O)(=O)C1 (centres undefined)
95 to 97 | CC(Oc1cccc(CO)c1)C(=O)O (centres undefined)
117 to 119 | CC1(C)OCC(C)(C(=O)O)CO1
267 to 269 | O=C(O)c1ccc(NS(=O)(=O)c2ccc(Br)cc2)cc1
106 to 108 | CC(C)(C)CC(=O)NCC(=O)O
104 to 106 | CC(=O)N(CCC(N)=S)C(C)C
121 to 123 | NC(=O)C1CNc2ccccc2C1 (centres undefined)
73 to 75 | Nc1nc(-c2ccccc2OC(F)F)cs1
170 to 172 | Fc1ccc(-c2nnc3cc(Cl)ncn23)c(F)c1
174 to 176 | CCC(NC(N)=O)C(=O)O (centres undefined)
148 to 150 | O=C(O)CCCc1nc2ccccc2s1
187 to 189 | Cc1nn(-c2cccc(F)c2)c(C(F)F)c1C(=O)O
125 to 127 | COc1cccc(NC(=O)c2ccccc2N(C)C(=O)CCC(=O)O)c1
137 to 139 | Cc1cc(OCC(N)=O)ccc1N
210 to 212 | COc1ccc(C(=O)/C=C2\NC(=O)CS2)cc1
292 to 294 | COc1cccc(Cn2c(N)cc(=O)[nH]c2=O)c1

melting point [°C] | Structure (SMILES)
120 to 122 | NNC(=O)CCN1CCN(c2ccccc2)CC1
165 to 167 | CN(C)C(=O)c1ccc(C=O)[nH]1
187 to 189 | CC(C)C(NC(=O)c1ccncc1)C(=O)O (centres undefined)
70 to 72 | Cc1cc(N)nn1-c1ccc(F)cc1
177 to 179 | Nn1c(S)nnc1C1CCOCC1
258 to 260 | Cc1cc2c(=O)[nH]cnc2s1
209 to 211 | Cc1ncc(C(=O)O)s1
207 to 209 | NNc1ccc(S(=O)(=O)Nc2ccccc2)cc1[N+](=O)[O-]
137 to 139 | Nc1cc(C(=O)N2CCCC2)ccc1Cl
63 to 65 | CS(=O)(=O)c1ccc(OCCN)cc1
64 to 66 | CCOC(=O)c1cn[nH]c1C(F)F
67 to 69 | CCCCC1NCCNC1=O (centres undefined)
63 to 65 | CCCNC(=O)c1cccnc1Cl
283 to 285 | CCNc1nc(S)nc2ccccc12
165 to 167 | O=C(O)C(c1ccccc1)N1CCS(=O)(=O)CC1 (centres undefined)
66 to 68 | COC(=O)C1CCN(S(=O)(=O)Cl)CC1
152 to 154 | Cc1ccc(Cl)c(C(=O)O)c1N
82 to 84 | COc1ccc(-c2ccncc2C=O)cc1
306 to 308 | O=C(CCl)Nc1sc2c(c1C(=O)NCc1ccccc1)CCCC2
136 to 138 | CCNC(=O)c1ccc(Cl)nc1
90 to 92 | O=C(O)c1nnn(C2CC2)c1C(F)(F)F
75 to 77 | CN(CC(=O)N1CCOCC1)C(=O)CCl
313 to 315 | Cc1nc(N)[nH]c(=O)c1CC(=O)O

melting point [°C] | Structure (SMILES)
169 to 171 | Cc1csc(NC(=O)CSCC(N)C(=O)O)n1 (centres undefined)
138 to 140 | CCOC(=O)c1cn2c(Br)ccc2cn1
99 to 101 | Cc1nc2ccc(Br)cc2c(Cl)c1C
199 to 201 | NCc1nc2ccccc2s1
110 to 112 | COc1cc(/C=C/C(=O)O)ccc1OCc1c(C)noc1C
212 to 214 | CC(C)(C)NS(=O)(=O)c1cc(C(=O)O)ccc1Cl
289 to 291 | COc1cc2c(c(OC)c1)C(=O)C(=O)N2
103 to 105 | O=CC1=Cc2cc(Br)ccc2OC1
229 to 231 | Cc1cccc(C(N)C(=O)O)c1 (centres undefined)
120 to 122 | C#Cc1cccc(NC(=O)CCl)c1
125 to 127 | CNc1cccc2ncccc12
174 to 176 | CN(C)S(=O)(=O)c1ccc(Br)c(C(=O)O)c1
98 to 100 | CCc1sc(C(=O)O)cc1C
180 to 182 | C=CCNS(=O)(=O)c1cccc(C(=O)O)c1
67 to 69 | Cc1[nH]oc(=N)c1Br
215 to 217 | Cc1ccc(-c2nc(C)c(C(=O)O)s2)o1
60 to 62 | COC(=O)c1ccc(Br)s1
259 to 261 | CCCc1noc2nc(-c3cccnc3)cc(C(=O)O)c12
209 to 211 | Nc1ccc(-c2cn3c(n2)CCCC3)cc1
125 to 127 | CC(C)(C(=O)O)c1ccc2c(c1)OCCO2
269 to 271 | O=C(O)c1ccnc(OCCOc2cc(C(=O)O)ccn2)c1
373 to 375 | O=C(O)c1ccc2[nH]c(=O)[nH]c2c1
47 to 49 | CCOc1ccc(S(=O)(=O)Cl)cn1

melting point [°C] | Structure (SMILES)
87 to 89 | CC(N)c1ccc(-c2ccncc2)cc1 (centres undefined)
182 to 184 | COc1ccc(-n2ccc(C(=O)O)n2)cc1
74 to 76 | O=C(O)CSCc1cccc(Cl)c1
117 to 119 | O=C(CCl)NC1CCN(Cc2ccccc2)CC1
121 to 123 | O=C(O)C1CCCCN1C(=O)C1CCCC1 (centres undefined)
75 to 77 | CCc1nc2c(s1)C(O)CCC2 (centres undefined)
74 to 76 | Fc1ccc(-c2cc(CBr)on2)cc1
160 to 162 | NC(=S)CN1C(=O)c2ccccc2S1(=O)=O
119 to 121 | COC(=O)c1c[nH]c(C2CC2)n1
76 to 78 | CC(C)C1CCNC(=O)CC1 (centres undefined)
191 to 193 | NNC(=O)c1cccc(S(=O)(=O)Nc2ccc(Cl)cc2)c1
122 to 124 | COc1ccc(N2C(=O)C=CC2=O)cn1
236 to 238 | O=C(Nc1cccc(C(=O)O)c1)NC1CC1
149 to 151 | Cc1nc(Cl)ccc1C(=O)O
159 to 161 | O=C1CC(C(F)(F)F)N(C(=O)CCl)c2ccccc2N1 (centres undefined)
124 to 126 | O=C(O)COc1cccc(Oc2ccccn2)c1
226 to 228 | CC(C)(C)OC(=O)N1CCc2nc(N)sc2C1
214 to 216 | CN(C)C(=O)Nc1ccc(Cl)c(C(=O)O)c1
90 to 92 | O=C(CCl)Nc1cccc(CSc2ccccn2)c1
63 to 65 | CC(C)Oc1ccc(CNC(=O)CCl)cc1
113 to 115 | O=Cc1ccc(F)c2cccnc12
89 to 91 | COc1ccc(-c2nn(-c3ccccc3)cc2CCl)cc1
59 to 61 | O=C(CBr)C12CC3CC(CC(C3)C1)C2

melting point [°C] | Structure (SMILES)
69 to 71 | CN(CC(=O)O)c1ccccc1[N+](=O)[O-]
114 to 116 | O=C(O)C(=O)C=Cc1cccs1
123 to 125 | O=C(c1ccc(Br)cc1)N1CCc2ccccc21
202 to 204 | Cc1cc(C(=O)O)c2c(C(C)C)noc2n1
121 to 123 | O=C(O)CCCOc1cccc(Cl)c1Cl
230 to 232 | Cc1ccccc1-n1c(S)nc2sc3c(c2c1=O)CCC(C)C3 (centres undefined)
276 to 278 | O=C(O)c1ccc2c(=O)n3c(nc2c1)CCCCC3
106 to 108 | CC(=O)CCc1ccc(OCC(=O)O)cc1
109 to 111 | O=[N+]([O-])c1cnccc1S
206 to 208 | Cc1ccccc1-n1c(S)nc(O)cc1=O
171 to 173 | O=C1C(Br)=CC2C1C1C=CC2(Br)C12OCCO2 (centres undefined)
83 to 85 | O=C(O)CC1CCC(c2ccccc2)CC1 (centres undefined)
178 to 180 | COC(=O)Cc1c(C(=O)OC)sc(N)c1C(=O)OC
69 to 73 | Cc1ccc2c(c1)CCC2=O
132 to 134 | CCOc1ccc2c(c1)CC(C(=O)O)CO2 (centres undefined)
167 to 169 | Cc1n[nH]c(-c2ccccn2)n1
151 to 153 | O=C(O)c1ccc(Oc2cccc(Br)c2)cc1
74 to 76 | Cc1cc(C)n(CCO)n1
32 to 34 | N#CC=C(Cl)c1ccccc1
192 to 194 | O=C1COc2cc(Br)ccc2N1
224 to 226 | COc1ccc2[nH]c(C)c(C(=O)CCl)c2c1

Structure (SMILES) | melting point [°C]
CCCCn1ncc(C(=O)O)c1C | 77 to 79
O=C1C2CC1CN(Cc1ccccc1)C2 | 64 to 66
O=S(=O)(F)c1ccc2[nH]ncc2c1 | 175 to 177
O=C(O)c1cnn(Cc2ccccc2)c1 | 149 to 151
FC(F)n1ccnc1CN1CCNCC1 | 73 to 75
CCc1c(C(=O)O)cnn1C(C)(C)C | 133 to 135
CC(C)(C)OC(=O)N1CCC(OC(=O)c2ccccc2N)CC1 | 120 to 122
Cc1nn(CC(C)C)c(Cl)c1C(=O)O | 128 to 130
